# Where no end group is shown, it is not given here.
# Legend:
# [1] = test system: Erwinia carotovora; assay: Bactericidal effect of antimicrobial peptides in microtiter plates, colony count; assay type: cell-based; settings: approximately 1×10^5 bacteria/ml, 4 hours at room temperature, plated on LB, FIG. 3
# Protocol: (§1) The cell cultures were incubated at room temperature in the presence of indicated concentration of Dermaseptin B (DSB; 23 μg/ml, 45 μg/ml) or Temporin A (TA; 67 μg/ml, 133 μg/ml) for 4 hours, diluted and plated on LB plates. After overnight incubation at 28° C., the colonies were counted and the survival of bacteria was scored.
# (§2) Bactericidal effects of antimicrobial peptides (SEQ ID NO: 34 (MRSA3) and SEQ ID NO: 28 (MRSA2)) were determined against Escherichia coli (FIG. 2) and Erwinia carolovora (FIG. 3) in microtiter plates in a final volume of 220 μl containing approximately 1×10^5 bacteria/ml and indicated concentration of antimicrobial peptides. The cell cultures were incubated at room temperature for 4 hours, diluted and plated on LB plates. After overnight incubation at 37° C. (E. coli) or 28° C. (E. carotovora) the colonies were counted and the survival of bacteria was scored.
# [2] = test system: Escherichia coli; assay: as above; assay type: cell-based; settings: approximately 1×10^5 bacteria/ml, 4 hours at room temperature, plated on LB, FIG. 2
# Protocol: as §1, with “7” for “23”, “30 μg/ml, and 75 μg/ml),” for “45 μg/ml) or”, “75” for “67”, “133 μg/ml, 200” for “133”, “μg/ml) and a combination of Temporin A and Dermaseptin B (133 μg/ml Temporin A and 30 μg/ml Dermaseptin B)” for “μg/ml)”, “37°” for “28°”
# as §2
Substance,"bactericidal effect, survival of bacteria [1]","bactericidal effect, survival of bacteria [2]"
MRSA2: mature 27 amino acid form of dermaseptin b with a 5 amino acid N-terminal extension MAMWK; called Dermaseptin B in figure legends (MAMWKDVLKKIGTVALHAGKAALGAVADTISQ; ends and bridges not checked),significant antimicrobial activity,significant antimicrobial activity
MRSA3: mature 13 amino acid form of temporin A with a 6 amino acid N-terminal extension MASRHM; called Temporin A in figure legends (MASRHMFLPLIGRVLSGIL; ends and bridges not checked; listed as Rana temporaria),significant antimicrobial activity,significant antimicrobial activity

# Source: US7081568B2, “Transgenic plants expressing temporin peptides” (University of Victoria Innovation and Development …, priority 1999, dated 2006)
